According to patent US20090239846A1, “Novel Compounds” (Glaxo Group Limited, priority 2005, published 2009):
Structures can show the parent of a compound that is named as a salt. Where two headings read alike, the source gives them in different places.

Key:
[1] = tested on: IL-8 production by human neutrophils; assay: TNF-stimulated IL-8 production from human neutrophils; format: cell-based; settings: Neutrophil
Recombinant human p38α = biological target: T1, Recombinant human p38α (Homo sapiens, UniProt Q16539); assay: Fluorescence anisotropy kinase binding assay (standard or low volume); settings: for active in the assay (pIC50, p38α binding): 12 nM p38α, 5 nM fluorescent ligand
T1 construct: GST; made in house
In short: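 Activated GST-tagged recombinant human p38α (pre-activated with MBP-MKK6 DD) at 12 nM final with 5 nM rhodamine green-labelled pyridinylimidazole tracer in pH 7.5 HEPES/CHAPS/DTT/MgCl2 buffer. Test compound 0.28 nM–16.6 μM or 0.02 nM–25 μM final, 3% or 1.7% DMSO; 30–60 min at room temperature. Fluorescence anisotropy read (ex 485/em 535 nm) for Ki.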

[2] = bound, not more than 50% inhibition at 100 nM, read-out: IC50
[3] = ends given as 'less than' / 'greater than', read-out: IC50, broad range of data upon multiple runs
[4] = bound, read-out: apparent pIC50 (converted)

T1 sequence (Q16539 whole entry): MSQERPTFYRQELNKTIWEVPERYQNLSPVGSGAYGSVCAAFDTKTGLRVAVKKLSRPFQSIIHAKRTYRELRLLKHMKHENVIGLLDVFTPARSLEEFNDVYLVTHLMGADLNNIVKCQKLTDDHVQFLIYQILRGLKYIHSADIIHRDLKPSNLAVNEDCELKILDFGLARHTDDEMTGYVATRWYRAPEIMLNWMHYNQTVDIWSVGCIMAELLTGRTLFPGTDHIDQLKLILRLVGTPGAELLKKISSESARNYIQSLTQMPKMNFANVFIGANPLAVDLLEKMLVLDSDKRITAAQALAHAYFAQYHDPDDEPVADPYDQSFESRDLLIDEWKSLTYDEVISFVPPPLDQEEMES

Row | IC50 [1, 2] | active in the assay (pIC50, p38α binding) (Recombinant human p38α) | SMILES | other results
1 | > 100 nM | active | Cc1ccc(C(=O)NCC2CC2)cc1-c1nc(N(C)CCN)nc2c1CNC(=O)N2c1c(F)cccc1F [4(c), 3-[2-[(2-Aminoethyl)(methyl)amino]-8-(2,6-difluorophenyl)-7-oxo-5,6,7,8-tetrahydropyrimido[4,5-d]pyrimidin-4-yl]-N-(cyclopropylmethyl)-4-methylbenzamide] | –
2 | > 100 nM | active | Cc1ccc(C(=O)NCC2CC2)cc1-c1nc(NC2CCNCC2)nc2c1CNC(=O)N2c1c(F)cccc1F [6(b), N-(Cyclopropylmethyl)-3-[8-(2,6-difluorophenyl)-7-oxo-2-(4-piperidinylamino)-5,6,7,8-tetrahydropyrimido[4,5-d]pyrimidin-4-yl]-4-methylbenzamide] | –
3 | – | active | CSc1nc(-c2cc(C(=O)NCc3ccccc3)ccc2C)c2c(n1)N(c1c(F)cccc1F)C(=O)NC2 [15(a), 3-[8-(2,6-Difluorophenyl)-2-(methylthio)-7-oxo-5,6,7,8-tetrahydropyrimido[4,5-d]pyrimidin-4-yl]-4-methyl-N-(phenylmethyl)benzamide] | IC50 [1, 3]: 40 to 100 nM
4 | > 100 nM | active | Cc1ccc(C(=O)NCc2ccccc2)cc1-c1nc(S(C)(=O)=O)nc2c1CNC(=O)N2c1c(F)cccc1F [15(b), 3-[8-(2,6-Difluorophenyl)-2-(methylsulfonyl)-7-oxo-5,6,7,8-tetrahydropyrimido[4,5-d]pyrimidin-4-yl]-4-methyl-N-(phenylmethyl)benzamide] | –
5 | – | – | Cc1ccc(C(=O)NCc2ccccc2)cc1-c1nc(NCCN(C)C(=O)OC(C)(C)C)nc2c1CNC(=O)N2c1c(F)cccc1F [19(a), 1,1-Dimethylethyl (2-{[8-(2,6-difluorophenyl)-4-(2-methyl-5-{[(phenylmethyl)amino]carbonyl}phenyl)-7-oxo-5,6,7,8-tetrahydropyrimido[4,5-d]pyrimidin-2-yl]amino}ethyl)methylcarbamate] | IC50 [1, 3]: 40 to 100 nM; IC50 (Recombinant human p38α; [4]): > 15.8 µM
6 | > 100 nM | active | Cc1ccc(C(=O)Nc2ccc(C)c(-c3nc(S(C)(=O)=O)nc4c3CNC(=O)N4c3c(F)cccc3F)c2)cc1F [23(d), N-[3-[8-(2,6-difluorophenyl)-2-(methylsulfonyl)-7-oxo-5,6,7,8-tetrahydropyrimido[4,5-d]pyrimidin-4-yl]-4-methylphenyl]-3-fluoro-4-methylbenzamide] | –
7 | > 100 nM | active | CN(C)CCNc1nc(-c2ccc(C(=O)Nc3nccs3)cc2)c2c(n1)N(c1c(F)cccc1F)C(=O)NC2 [96(b), 4-(8-(2,6-difluorophenyl)-2-{[2-(dimethylamino)ethyl]amino}-7-oxo-5,6,7,8-tetrahydropyrimido[4,5-d]pyrimidin-4-yl)-N-1,3-thiazol-2-ylbenzamide] | –
8 | > 100 nM | active | CCN(CC)C(=O)c1ccc(C)c(-c2nc(SC)nc3c2CNC(=O)N3c2c(F)cccc2F)c1 [156(a)] | –
9 | > 100 nM | active | CCN(CC)C(=O)c1ccc(C)c(-c2nc(S(C)(=O)=O)nc3c2CNC(=O)N3c2c(F)cccc2F)c1 [156(b), 3-[8-(2,6-difluorophenyl)-2-(methylsulfonyl)-7-oxo-5,6,7,8-tetrahydropyrimido[4,5-d]pyrimidin-4-yl]-N,N-diethyl-4-methylbenzamide] | –
10 | > 100 nM | active | CNCCNc1nc(-c2cc(C(=O)NCC3CC3)ccc2C)c2c(n1)N(c1c(F)cccc1F)C(=O)NC2 [Example 5, N-(Cyclopropylmethyl)-3-(8-(2,6-difluorophenyl)-2-{[2-(methylamino)ethyl]amino}-7-oxo-5,6,7,8-tetrahydropyrimido[4,5-d]pyrimidin-4-yl)-4-methylbenzamide] | –
11 | > 100 nM | – | Cc1ccc(C(=O)NC(C)C)cc1-c1nc(N2CCN(C(c3ccccc3)c3ccccc3)CC2)nc2c1CNC(=O)N2c1c(F)cccc1F [Example 84, 3-{8-(2,6-difluorophenyl)-2-[4-(diphenylmethyl)-1-piperazinyl]-7-oxo-5,6,7,8-tetrahydropyrimido[4,5-d]pyrimidin-4-yl}-4-methyl-N-(1-methylethyl)benzamide trifluoroacetate] | IC50 (Recombinant human p38α; second end given as 'less than', read-out: pIC50, broad range of data upon multiple runs (converted)): > 1.78 µM
12 | > 100 nM | – | CCCNC(=O)c1ccc(-c2nc(NCCN(C)C)nc3c2CNC(=O)N3c2c(F)cccc2F)cc1 [Example 98, 4-(8-(2,6-difluorophenyl)-2-{[2-(dimethylamino)ethyl]amino}-7-oxo-5,6,7,8-tetrahydropyrimido[4,5-d]pyrimidin-4-yl)-N-propylbenzamide trifluoroacetate] | IC50 (Recombinant human p38α; [4]): > 15.8 µM
13 | > 100 nM | – | Cc1c(F)cc(C(=O)N(C)C)cc1-c1nc(NCCN(C)C)nc2c1CNC(=O)N2c1c(F)cccc1F [Example 113, 3-(8-(2,6-difluorophenyl)-2-{[2-(dimethylamino)ethyl]amino}-7-oxo-5,6,7,8-tetrahydropyrimido[4,5-d]pyrimidin-4-yl)-5-fluoro-N,N,4-trimethylbenzamide] | –
14 | – | – | Cc1c(F)cc(C(=O)Nc2ccc(F)cc2)cc1-c1nc(NCCN(C)C)nc2c1CNC(=O)N2c1c(F)cccc1F [Example 115, 3-(8-(2,6-difluorophenyl)-2-{[2-(dimethylamino)ethyl]amino}-7-oxo-5,6,7,8-tetrahydropyrimido[4,5-d]pyrimidin-4-yl)-5-fluoro-N-(4-fluorophenyl)-4-methylbenzamide] | IC50 [1, 3]: 1 to 100 nM
15 | > 100 nM | – | Cc1ccc(C(=O)NC(C)C)cc1-c1nc(N(C)CCCN(C)CCCN(C)C)nc2c1CNC(=O)N2c1c(F)cccc1F [Example 116, 3-{8-(2,6-difluorophenyl)-2-[{3-[[3-(dimethylamino)propyl]-(methyl)amino]propyl}(methyl)amino]-7-oxo-5,6,7,8-tetrahydropyrimido[4,5-d]pyrimidin-4-yl}-4-methyl-N-(1-methylethyl)benzamide] | –
16 | > 100 nM | – | Cc1ccc(C(=O)NCC(C)(C)C)cc1-c1nc(NCCN(C)C)nc2c1CNC(=O)N2c1c(F)cccc1F [Example 125, 3-(8-(2,6-difluorophenyl)-2-{[2-(dimethylamino)ethyl]amino}-7-oxo-5,6,7,8-tetrahydropyrimido[4,5-d]pyrimidin-4-yl)-N-(2,2-dimethylpropyl)-4-methylbenzamide] | –
17 | > 100 nM | – | CCc1ccc(C(N)=O)cc1-c1nc(NCCN(C)C)nc2c1CNC(=O)N2c1c(F)cccc1F [Example 146, 3-(8-(2,6-difluorophenyl)-2-{[2-(dimethylamino)ethyl]amino}-7-oxo-5,6,7,8-tetrahydropyrimido[4,5-d]pyrimidin-4-yl)-4-ethylbenzamide] | –
18 | > 100 nM | – | Cc1ccc(C(=O)NC(C)C)cc1-c1nc(NCCN2CCN(Cc3ccccc3)CC2)nc2c1CNC(=O)N2c1c(F)cccc1F [Example 197, 3-[8-(2,6-difluorophenyl)-7-oxo-2-({2-[4-(phenylmethyl)-1-piperazinyl]ethyl}amino)-5,6,7,8-tetrahydropyrimido[4,5-d]pyrimidin-4-yl]-4-methyl-N-(1-methylethyl)benzamide trifluoroacetate] | –
19 | > 100 nM | – | CCCNC(=O)c1ccc(C)c(-c2nc(NCCC(=O)O)nc3c2CNC(=O)N3c2c(F)cccc2F)c1 [Example 229, N-(8-(2,6-difluorophenyl)-4-{2-methyl-5-[(propylamino)carbonyl]phenyl}-7-oxo-5,6,7,8-tetrahydropyrimido[4,5-d]pyrimidin-2-yl)-β-alanine] | –
